The values below come from patent publication US12692249B2, “WDR5 inhibitors and modulators” (Vanderbilt University, priority 2019, dated 2026).

This test has as its system MV4:11 human cancer cell lines. In words: Cellular viability / anti-proliferative assay, CellTiter-Glo, 5 day protocol. The note with it: Homo sapiens, MV4-11, 120 h, read-out: GI50 on cellular proliferation of MV4:11 human cancer cell lines. In kind it is cell-based. The protocol:
Cellular Viability of Human Tumor Cell Lines
Anti-proliferative activity using MLL-harboring cell lines. MV-4-11 and K562 cells are grown in IMDM media supplemented with 10% FBS and 1% penicillin/streptomycin, Molm-13 cells are cultured in RPMI-1640 media supplemented with 10% FBS and 1% penicillin/streptomycin. Viability assays are performed by dispensing 200 cells at 7200 cells/mL into each well of an opaque 384-well plate and adding compounds at the indicated concentrations in a final volume, of 32 μL. and a final concentration of DMSO of 0.3% for all samples. A certain range of compound concentrations is made through a series of 2-fold dilutions starting 30 μM at the highest, total 22 dilutions. After a set incubation period, 5 day protocol, the viability of cells in each well is assessed using the CellTiter-Glo assay (Promega), read on a 96 Microplane Luminometer (Cytation 3, BioTek). Serial dilutions of each cell type are performed in all assays to generate standard curves and the final densities of cells are determined within the dynamic range of the instrument. GI50 values are calculated based on XLfit software (IDBS, Guildford, UK) with Sigmoidal Dose-Response Model. Each compound is tested in minimum of two replicates. Data are expressed as mean.
(In ATP-based viability assays light output follows the ATP content of the culture.)

[1] abbreviates: MV4:11 cells, 5 day incubation, CellTiter-Glo, mean of at least two replicates.

Where two headings read alike, the source gives them in different places. Where only a bound is given, the exact number is not on record here.

On to `CCc1cc(C2CCN(C)CC2)c2nc(C)cc(N3CCc4c(cc(Cn5ccnc5)cc4-c4cn(C)nc4C(F)(F)F)C3=O)c2c1` [Example 148, 7-((1H-Imidazol-1-yl)methyl)-2-(6-ethyl-2-methyl-8-(1-methylpiperidin-4-yl)quinolin-4-yl)-5-(1-methyl-3-(trifluoromethyl)-1H-pyrazol-4-yl)-3,4-dihydroisoquinolin-1(2H)-one], for which the GI50 under setting [1] is less than 20 nM.
Take `COc1cc(C2=CCN(C)CC2)c2nc(C)cc(N3CCc4c(cc(Cn5ccnc5)cc4-c4cn(C)nc4C(F)(F)F)C3=O)c2c1` [Example 154, 7-((1H-Imidazol-1-yl)methyl)-2(6-methoxy-2-methyl-8-(1-methyl-1,2,3,6-tetrahydropyridin-4-yl)quinolin-4-yl)-5-(1-methyl-3-(trifluoromethyl)-1H-pyrazol-4-yl)-3,4-dihydroisoquinolin-1(2H)-one]: under setting [1], the GI50 was found to be 33 nM.
Same read-out and setting: with `CCc1cc(C(=O)Nc2nccn2C)c2nccc(N3CCc4c(cc(Cn5ccnc5)cc4-c4cn(C)nc4C(F)(F)F)C3=O)c2c1` [Example 161, 4-(7-((1H-Imidazol-1-yl)methyl)-5-(1-methyl-3-(trifluoromethyl)-1H-pyrazol-4-yl)-1-oxo-3,4-dihydroisoquinolin-2(1H)-yl)-6-ethyl-N-(1-methyl-1H-imidazol-2-yl)quinoline-8-carboxamide] the figure was 59 nM; with `CCOC(=O)c1cc(CC)cc2c(N3CCc4c(cc(Cn5ccnc5)cc4-c4cn(C)nc4C(F)(F)F)C3=O)cc(C)nc12` [Example 162, ethyl 4-(7-((1H-imidazol-1-yl)methyl)-5-(1-methyl-3-(trifluoromethyl)-1H-pyrazol-4-yl)-1-oxo-3,4-dihydroisoquinolin-2(1H)-yl)-6-ethyl-2-methylquinoline-8-carboxylate], 88 nM.
With `CCc1cc(C(=O)NCc2ccncc2)c2nccc(N3CCc4c(cc(Cn5ccnc5)cc4-c4cn(C)nc4C(F)(F)F)C3=O)c2c1` [Example 163, 4-(7-((1H-Imidazol-1-yl)methyl)-5-(1-methyl-3-(trifluoromethyl)-1H-pyrazol-4-yl)-1-oxo-3,4-dihydroisoquinolin-2(1H)-yl)-6-ethyl-N-(pyridin-4-ylmethyl)quinoline-8-carboxamide], under setting [1], the GI50 came to 56 nM.
Same read-out and setting: in the case of `CCc1cc(C(=O)NC2CCCC2)c2nccc(N3CCc4c(cc(Cn5ccnc5)cc4-c4cn(C)nc4C(F)(F)F)C3=O)c2c1` [Example 164, 4-(7-((1H-Imidazol-1-yl)methyl)-5-(1-methyl-3-(trifluoromethyl)-1H-pyrazol-4-yl)-1-oxo-3,4-dihydroisoquinolin-2(1)-yl)-N-cyclopentyl-6-ethylquinoline-8-carboxamide] it was 155 nM.
Take `CCc1cc(C(=O)NCCN(C)C)c2nccc(N3CCc4c(cc(Cn5ccnc5)cc4-c4cn(C)nc4C(F)(F)F)C3=O)c2c1` [Example 166, 4-(7-((1H-Imidazol-1-yl)methyl)-5-(1-methyl-3-(trifluoromethyl)-1H-pyrazol-4-yl)-1-oxo-3,4-dihydroisoquinolin-2(1H)-yl)-N-(2-(dimethylamino)ethyl)-6-ethylquinoline-8-carboxamide]: the GI50 was less than 20 nM.
Regarding `CCc1cc(C(=O)NCCO)c2nccc(N3CCc4c(cc(Cn5ccnc5)cc4-c4cn(C)nc4C(F)(F)F)C3=O)c2c1` [Example 168, 4-(7-((1H-Imidazol-1-yl)methyl)-5-(1-methyl-3-(trifluoromethyl)-1H-pyrazol-4-yl)-1-oxo-3,4-dihydroisoquinolin-2(1H)-yl)-6-ethyl-N-(2-hydroxyethyl)quinoline-8-carboxamide], the GI50 under setting [1] was found to be 46 nM.
Same read-out and setting: with `CCc1cc(C(=O)NCC2CCCC2)c2nccc(N3CCc4c(cc(Cn5ccnc5)cc4-c4cn(C)nc4C(F)(F)F)C3=O)c2c1` [Example 170, 4-(7-((1H-Imidazol-1-yl)methyl)-5-(1-methyl-3-(trifluoromethyl)-1H-pyrazol-4-yl)-1-oxo-3,4-dihydroisoquinolin-2(1H)-yl)-N-(cyclopentylmethyl)-6-ethylquinoline-8-carboxamide] the figure was 212 nM.
Regarding `CCc1cc(C(=O)NC)c2nc(C)cc(N3CCc4c(cc(Cn5ccnc5)cc4-c4cn(C)nc4C(F)(F)F)C3=O)c2c1` [Example 178], the GI50 under setting [1] is less than 20 nM.
For `COc1cc(-c2n[nH]c(=O)o2)c2nc(C)cc(N3CCc4c(cc(Cn5ccnc5)cc4-c4cn(C)nc4C(F)(F)F)C3=O)c2c1` [Example 180, 5-(4-(7-((1H-Imidazol-1-yl)methyl)-5-(1-methyl-3-(trifluoromethyl)-1H-pyrazol-4-yl)-1-oxo-3,4-dihydroisoquinolin-2(1H)-yl)-6-methoxy-2-methylquinolin-8-yl)-1,3,4-oxadiazol-2(3-1)-one], the GI50 under setting [1] worked out at 68 nM.
In the case of `CCc1cc(OC)c2nccc(N3CCc4c(cc(Cn5ccnc5)cc4-c4cccnc4C(F)(F)F)C3=O)c2c1` [Example 185, 7-((1H-Imidazol-1-yl)methyl)-2-(6-ethyl-8-methoxyquinolin-4-yl)-5-(2-(trifluoromethyl)pyridin-3-yl)-3,4-dihydroisoquinolin-1(2H)-one], the GI50 under setting [1] was 55 nM.
On the same count and under the same terms, in the case of `COc1cc(N2CCC(NC(C)=O)CC2)c2nc(C)cc(N3CCc4c(cc(Cn5ccnc5)cc4-c4cn(C)nc4C(F)(F)F)C3=O)c2c1` [Example 192, N-(1-(4-(7-((1H-Imidazol-1-yl)methyl)-5-(1-methyl-3-(trifluoromethyl)-1H-pyrazol-4-yl)-1-oxo-3,4-dihydroisoquinolin-2(1H)-yl)-6-methoxy-2-methylquinolin-8-yl)piperidin-4-yl)acetamide] it was less than 20 nM.
Still for that read-out and setting: with `CCc1cc(C(=O)NC2CCN(C)C2)c2nccc(N3CCc4c(cc(Cn5ccnc5)cc4-c4cn(C)nc4C(F)(F)F)C3=O)c2c1` (stereo not drawn) [Example 193, 4-(7-((1H-Imidazol-1-yl)methyl)-5-(1-methyl-3-(trifluoromethyl)-1H-pyrazol-4-yl)-1-oxo-3,4-dihydroisoquinolin-2(1H)-yl)-6-ethyl-N-(1-methylpyrrolidin-3-yl)quinoline-8-carboxamide] the figure was less than 20 nM; with `COc1cc(-c2nnn[nH]2)c2nc(C)cc(N3CCc4c(cc(Cn5ccnc5)cc4-c4cn(C)nc4C(F)(F)F)C3=O)c2c1` [Example 196, 7-((1H-Imidazol-1-yl)methyl)-2-(6-methoxy-2-methyl-8-(1H-tetrazol-5-yl)quinolin-4-yl)-5-(1-methyl-3-(trifluoromethyl)-1H-pyrazol-4-yl)-3,4-dihydroisoquinolin-1(2H)-one], greater than 10000 nM.
In the case of `COc1cc(C(N)=O)c2nc(C)cc(N3CCc4c(cc(Cn5ccnc5)cc4-c4cn(C)nc4C(F)(F)F)C3=O)c2c1` [Example 198, 4-(7-((1H-Imidazol-1-yl)methyl)-5-(1-methyl-3-(trifluoromethyl)-1H-pyrazol-4-yl)-1-oxo-3,4-dihydroisoquinolin-2(1H)-yl)-6-methoxy-2-methylquinoline-8-carboxamide], under setting [1], the GI50 was less than 20 nM.
Same read-out and setting: with `CCc1cc(C(=O)NC)c2nccc(N3CCc4c(cc(Cn5ccnc5)cc4-c4cccnc4C(F)(F)F)C3=O)c2c1` [Example 199, 4-(7-((1H-imidazol-1-yl)methyl)-1-oxo-5-(2-(trifluoromethyl)pyridin-3-yl)-3,4-dihydroisoquinolin-2(1H)-yl)-6-ethyl-N-methylquinoline-8-carboxamide] the figure was 131 nM; with `COc1cc(C#N)c2nccc(N3CCc4c(cc(Cn5ccnc5)cc4-c4cn(C)nc4C(F)(F)F)C3=O)c2c1` [Example 205], less than 20 nM; with `CCc1cc(N2CCN(CCOC)CC2)c2nccc(N3CCc4c(cc(Cn5ccnc5)cc4-c4cn(C)nc4C(F)(F)F)C3=O)c2c1` [Example 210], less than 20 nM.
As to `CCc1cc(N2CCN(C3COC3)CC2)c2nccc(N3CCc4c(cc(Cn5ccnc5)cc4-c4cn(C)nc4C(F)(F)F)C3=O)c2c1` [Example 215, 7-((1H-Imidazol-1-yl)methyl)-2-(6-ethyl-8-(4-(oxetan-3-yl)piperazin-1-yl)quinolin-4-yl)-5-(1-methyl-3-(trifluoromethyl)-1H-pyrazol-4-yl)-3,4-dihydroisoquinolin-1(2H)-one], the GI50 under setting [1] was less than 20 nM.
As to `CCc1cc(C(=O)NC2CN(C(=O)c3ccncc3)C2)c2nccc(N3CCc4c(cc(Cn5ccnc5)cc4-c4cn(C)nc4C(F)(F)F)C3=O)c2c1` [Example 225], the GI50 under setting [1] is less than 20 nM.
On to `COc1cc(C(=O)NC2CN(C(C)=O)C2)c2nccc(N3CCc4c(cc(Cn5ccnc5)cc4-c4cn(C)nc4C(F)(F)F)C3=O)c2c1` [Example 226, 4-(7-((1H-Imidazol-1-yl)methyl)-5-(1-methyl-3-(trifluoromethyl)-1H-pyrazol-4-yl)-1-oxo-3,4-dihydroisoquinolin-2(1H)-yl)-N-(1-acetylazetidin-3-yl)-6-methoxyquinoline-8-carboxamide], for which the GI50 under setting [1] was found to be 43 nM.
For `COc1cc(C(=O)NC2CN(C(=O)c3cscn3)C2)c2nccc(N3CCc4c(cc(Cn5ccnc5)cc4-c4cn(C)nc4C(F)(F)F)C3=O)c2c1` [Example 227], the GI50 under setting [1] is less than 20 nM.
Still for that read-out and setting: with `CCc1cc(C(=O)NC2CN(C(C)=O)C2)c2nccc(N3CCc4c(cc(Cn5ccnc5)cc4-c4cn(C)nc4C(F)(F)F)C3=O)c2c1` [Example 241] the figure was less than 20 nM.
